{"source": "patent US11298337B2", "about": "“Parthenolide and its derivative for use in the treatment of axonal damage” (RUHR-UNIVERSITÄT BOCHUM, priority 2015, dated 2022)", "key": {"[1]": {"system": "dissociated DRG neurons from adult wild type mice and GSK3α/GSK3β double knock-in mice", "experiment": "Axon growth of DRG neurons with SB216763 or nocodazole (modulation of microtubule dynamics)", "details": "2 days in culture", "protocol": "Dorsal root ganglion (DRG) neurons were isolated from adult wild type (wt) and GSK3α/GSK3β mice as described in Gobrecht et al., Nature communications. […] DRGs (T8-L6) were harvested, incubated in 0.25% trypsin/EDTA (GE Healthcare, Chalfont St Giles, UK) and 0.3% collagenase type IA (Sigma, St. Louis, US-Mo.) in DMEM (Life Technologies, Carlsbad, US-Calif.) at 37° C. and 5% CO2 for 45 min and mechanically dissociated. Cells were resuspended in DMEM containing 10% fetal bovine serum (GE Healthcare) penicillin/streptomycin (500 U/ml; Merck Millipore, Billerica, US-MA) and 5-fluoro-2′-desoxyuridine (100 nM; Sigma). Cells were cultured on poly-D-lysine (PDL, 0.1 mg/ml, molecular weight <300,000 kDa; Sigma) and laminin (20 μg/ml; Sigma) coated 96 well plates (Nunc, Germany) at 37° C. and 5% CO2."}, "[2]": {"system": "dissociated DRG neurons from adult wild type mice", "experiment": "Axon growth of dissociated adult DRG neurons in culture", "details": "adult wt DRG neurons, 2 days in culture", "protocol": "DRGs (T8-L6) were harvested, incubated in 0.25% trypsin/EDTA (GE Healthcare, Chalfont St Giles, UK) and 0.3% collagenase type IA (Sigma, St. Louis, US-Mo.) in DMEM (Life Technologies, Carlsbad, US-Calif.) at 37° C. and 5% CO2 for 45 min and mechanically dissociated. Cells were resuspended in DMEM containing 10% fetal bovine serum (GE Healthcare) penicillin/streptomycin (500 U/ml; Merck Millipore, Billerica, US-MA) and 5-fluoro-2′-desoxyuridine (100 nM; Sigma). Cells were cultured on poly-D-lysine (PDL, 0.1 mg/ml, molecular weight <300,000 kDa; Sigma) and laminin (20 μg/ml; Sigma) coated 96 well plates (Nunc, Germany) at 37° C. and 5% CO2.\nThe effect of the tubulin carboxypeptidase (TCP) inhibitor parthenolide on axon growth of mature neurons was determined in dissociated DRG neurons from adult wild type mice as described above.\nDRGs (T8-L6) were harvested, incubated in 0.25% trypsin/EDTA (GE Healthcare, Chalfont St Giles, UK) and 0.3% collagenase type IA (Sigma, St. Louis, US-Mo.) in DMEM (Life Technologies, Carlsbad, US-Calif.) at 37° C. and 5% CO2 for 45 min and mechanically dissociated. […]\nAxonal growth was determined upon 48 h incubation by fixation in 4% PFA (Sigma) and immunocytochemical staining with antibodies against NeuN (1:2,000; Abcam, ab177487, Cambridge, UK) and βIII-tubulin (1:2,000; Covance, Princeton, US-N.J.). […]"}}}
{"smiles": "COC(=O)Nc1nc2ccc(C(=O)c3cccs3)cc2[nH]1", "note": "[nocodazole]", "values": [{"measurement": "axon growth, effect on GSK3α^S/A/GSK3β^S/A and parthenolide promoted growth", "setting": "[1]; 10 nM nocodazole, alone or with 1 nM parthenolide", "result": "abrogated the beneficial effects of both GSK3α^S/A/GSK3β^S/A and parthenolide to similar extent"}]}
{"smiles": "C=C(C(=O)O[C@H]1C/C(C)=C/CC/C(CO)=C/C2OC(=O)C(=C)[C@@H]21)C(O)CO", "note": "(stereo in doubt) [cnicin, [(1R,2S,4E,8Z,10S)-8-(hydroxymethyl)-4-methyl-13-methylidene-12-oxo-11-oxabicyclo[8.3.0]trideca-4,8-dien-2-yl] (3S)-3,4-dihydroxy-2-methylidene-butanoate]", "values": [{"measurement": "axon growth", "setting": "[2]; 0.1-100 nM, normalized to vehicle", "result": "significant, but less pronounced axon growth promotion"}, {"measurement": "concentration with strongest effects on axon growth", "setting": "[2]", "result": 0.5, "unit": "nM"}]}
{"smiles": "Cn1cc(C2=C(c3ccc(Cl)cc3Cl)C(=O)NC2=O)c2ccccc21", "note": "[SB216763]", "values": [{"measurement": "axon growth promoted by GSK3α^S/A/GSK3β^S/A", "setting": "[1]; 5 μM SB216763, double knock-in DRG neurons", "result": "efficiently blocked GSK3α^S/A/GSK3β^S/A promoted axon growth"}]}
